Drawing on PMC7822874, “Chemoprotective antimalarials identified through quantitative high-throughput screening of Plasmodium blood and liver stage parasites” (Scientific Reports, 2021), this text covers AC50 for 72 compounds.

For one assay, the system named is Plasmodium falciparum Dd2 asexual blood stage parasites. Put plainly: microbe, parasite or virus in culture. Also on record: species or system Plasmodium falciparum Dd2 in human erythrocytes; single determination (one 11-point concentration-response curve). Particulars: Plasmodium falciparum, DD2, Erythrocyte, 72 h.
In general, AC50 refers to the concentration at which the activity in the assay is half-maximal. The compound `CC(C(=O)c1c[nH]c2ccccc12)N1CCN(C(=O)c2ccco2)CC1` (stereo not drawn) [MLS000768379-01] came in with an AC50 of 5.96 µM.

Still in this assay, the particulars now being: Plasmodium falciparum, DD2, Erythrocyte, 72 h; read-out: AC50.
On to `Cc1cc(Oc2c(C(F)(F)F)oc3c(CN4CCC(C)CC4)c(O)ccc3c2=O)cc(C)c1Cl` [NCGC00101140-01], for which the AC50 was determined as 0.75 µM.
Consider `CN(C)CCN1C(=O)c2oc3ccc(Cl)cc3c(=O)c2C1c1cccc(Br)c1` (stereo not drawn) [MLS000862131-01], for which the half-maximal activity concentration (AC50) was determined as 0.531 µM.
Consider `COc1ncc(-c2cc(C(=O)NCc3c(C)cc(C)[nH]c3=O)c3c(c2)N(C(C)C)CCO3)cn1` [NCGC00416983-01], for which the AC50 amounted to 9.44 µM.
Same read-out and setting: in the case of `COc1cc2c(cc1OC1CCCC1)NC(=O)C21CCN(Cc2nccs2)CC1` [NCGC00416850-01] it was 19.3 µM.
For the compound `O=C(Nc1cnc2ccccc2c1)c1cccc(-n2cnnn2)c1` [MLS000032104-01], the AC50 amounted to 2.66 µM.
Consider `O=C(NC1CCCCC1)C(c1cccs1)N(CCCN1CCOCC1)C(=O)c1ccc(-c2ccccc2)[nH]1` (stereo not drawn) [MLS000711767-01], for which the AC50 was 4.73 µM.
For `COC(=O)[C@H](Cc1ccc(OC)cc1)NC(=O)[C@H]1CN(C(=O)c2ccc(N(C)C)cc2)CCN1C(=O)C1CCCCC1` [NCGC00398660-01], the AC50 was determined as 0.668 µM.
Still for that read-out and setting: under `O=C(Cc1ccc2c(c1)OCO2)N1CCOCC2(CN(Cc3ccccc3)C2)C1` [NCGC00418996-01] stands 6.85 µM; under `CN(Cc1ccccc1)Cc1cc(C[C@@H]2CC[C@H](O)[C@@H](CNCc3ccccc3)O2)no1` [NCGC00393466-01], 4.73 µM.
On the same count and under the same terms, under `COc1ccc(CN2CCC3(C2)C(NC2CCCCC2)=NC(=O)N3c2cccnc2)cc1` (stereo not drawn) [NCGC00374261-01] stands 2.11 µM; under `CCCNCC(O)COc1ccccc1C(=O)CCc1ccccc1` (stereo not drawn) [NCGC00015819-06], 0.841 µM; under `CN1CCN(Cc2ccccc2Oc2ccc(C(F)(F)F)cn2)CC1` [NCGC00433787-01], 0.531 µM.
With `COc1cccc(/C=C/C(=O)Nc2ccc3nc(N4CCN(C)CC4)cc(C)c3c2)c1OC` [NCGC00104449-01], the AC50 turned out to be 5.96 µM.
For the compound `CCN(C(=O)CSc1nc(-c2ccc(C(C)C)cc2)no1)c1cccc(C)c1` [NCGC00127902-01], the AC50 amounted to 1.06 µM.
On to `Cc1cccc(Cn2nnc3c(O)nc(C4CCCN(C(=O)c5ccc(C(C)(C)C)cc5)C4)nc32)c1` (stereo not drawn) [NCGC00116091-01], for which the AC50 is 2.66 µM.
For `CCCCC(=O)Nc1nc(C)c(-c2csc(Nc3cc(OC)ccc3OC)n2)s1` [MLS000561609-01], the AC50 was 9.44 µM.
In the case of `CCC(=O)C1=C(c2cccc([N+](=O)[O-])c2)N(C(=O)CC)n2c(nnc2C2CCCCC2)S1` [NCGC00137266-01], the AC50 amounted to 1.88 µM.
On the same count and under the same terms, under `CCn1ncc(CN2CCCC23CCN(c2cc(C)nc4ccccc24)CC3)c1C` [NCGC00442843-01] stands 5.31 µM; under `CC(C)N1CCC2(CC1)CN(C(=O)Cc1cccc(F)c1)Cc1ccccc1O2` [NCGC00456475-01], 15 µM.
The same measure, in the same setting: under `Cc1cccc(CN2CCCN(Cc3ccncc3)C(c3ccccc3)CC(=O)NCC2)c1` (stereo not drawn) [NCGC00467184-01] stands 4.22 µM; under `O=[N+]([O-])c1ccc([S+](=O)([O-])N2CCn3cccc3C2c2ccc(Br)cc2)cc1` (stereo not drawn) [NCGC00137374-01], 5.96 µM.
Turning to `COc1ccc(CC(=O)N2Cc3ccccc3CC3(CCCN3C)C2)cc1` (stereo not drawn) [NCGC00377108-01], the AC50 stood at 9.44 µM.
With `Cc1cc(C(=O)CN2C(=O)NC(C)(c3cccc(Br)c3)C2=O)c(C)n1Cc1ccco1` (stereo not drawn) [MLS000055137-01], the AC50 turned out to be 13.3 µM.
As for `COc1ccc2c(CNCc3ccccc3OC)c(C(=O)O)n(Cc3ccc(F)cc3Cl)c2c1` [NCGC00122363-01], the AC50 was determined as 15 µM.
Turning to `Cc1cc2nc3n(c(=O)c2n1CC(=O)Nc1ccccc1C(C)C)CCCCC3` [NCGC00455404-01], the AC50 amounted to 8.41 µM.
On to `CCOC(=O)C1(Cc2ccc(Cl)cc2)CCN(Cc2ccc(OC)cc2O)CC1` [NCGC00428386-01], for which the AC50 was 0.188 µM.
Regarding `CCc1ccc(-c2nn(CC(=O)NC3CCCCC3)c3c2cnc2ccc(OC)cc23)cc1` [NCGC00130391-01], the AC50 worked out at 9.44 µM.
Turning to `COc1cc2nc(NCCc3cccc(C)c3)n3nc(-c4ccccc4)nc3c2cc1OC` [NCGC00112859-01], the AC50 is 0.841 µM.
`COc1cc(C2CC(=O)Nc3cc4c(cc32)OCCO4)cc(Br)c1OC` (stereo not drawn) [NCGC00107055-01]: the AC50 stood at 5.31 µM.
With `COc1ccc(CC(=O)NCc2cc(C)cc3c(C)c(C)[nH]c23)c(OC)c1` [NCGC00431513-01], the AC50 turned out to be 8.41 µM.
With `CC(=O)Nc1cc(-c2ccccc2)ccc1O` [MLS000030849-01], the AC50 turned out to be 4.73 µM.
`O=C(Nc1ccsc1C(=O)NC1CCCCC1)c1ccc(F)cc1` [MLS000546987-01]: the AC50 is 6.68 µM.
In the case of `COc1ccc2cc1Nc1ccc(cc1)C[C@H](NCc1ccc(C)o1)C(=O)N(C)[C@H](C(=O)NCCC(C)C)C2` [NCGC00410286-01], the concentration at half-maximal activity (AC50) came out at 5.96 µM.
Still for that read-out and setting: under `COc1ccc(Nc2c(-c3cc(Br)ccc3O)nc3ncccn23)cc1OC` [NCGC00107676-01] stands 4.73 µM.
For `O=C1N(c2ccccc2C(F)(F)F)O[C@@]1(c1ccccc1)C1CCCC1` [MLS002206604-01], the AC50 was 2.99 µM.
Same read-out and setting: under `O=C(Nc1ccccc1)c1cc2c(-c3ccccc3)nn(-c3ccccc3)c2s1` [NCGC00102084-01] stands 3.35 µM; under `COc1ccc(C(=O)Nc2nc3c(s2)C[C@@H]2[C@](C)(CO)[C@H](O)CC[C@@]2(C)[C@@H]3CC(=O)NCc2ccco2)cc1` [NCGC00421299-01], 2.66 µM.
As for `CCCn1c(=N)c(C(=O)NCc2ccc3c(c2)OCO3)cc2c(=O)n3cccc(C)c3nc21` [MLS001305712-01], the AC50 amounted to 10.6 µM.
Regarding `COc1ccc(CN2CCC(CO)(CCCc3ccccc3)CC2)c(Cl)c1OC` [NCGC00426399-01], the AC50 is 8.41 µM.
Consider `CN1CCN(c2ccc(NC(=O)c3ccc(-c4cccc([N+](=O)[O-])c4)o3)cc2)CC1` [MLS000663772-01], for which the AC50 was determined as 4.73 µM.
On the same count and under the same terms, in the case of `Cc1nc(-c2ccccc2)n(CC(=O)Nc2ccc(Cl)cc2)c(=O)c1CCO` [NCGC00470932-01] it was 16.8 µM.
As to `Cc1ccccc1-c1nccn2c(C3CN(Cc4ccccc4O)C3)ncc12` [NCGC00414046-01], the AC50 was 5.44 µM.
As for `COCC1CN(Cc2cccc(OC(F)(F)F)c2)CC12CCNCC2` (stereo not drawn) [NCGC00461844-01], the AC50 was found to be 15 µM.
As to `COc1ccc(N2CCN(c3oc(/C=C/c4cc(OC)c(OC)c(OC)c4)nc3C#N)CC2)cc1` [NCGC00116464-01], the half-maximal activity concentration (AC50) was 2.66 µM.
As for `O=C(Nc1sc2c(c1C(=O)NCc1ccco1)CCCC2)c1cc(=O)c2ccccc2o1` [NCGC00115806-01], the AC50 amounted to 10.6 µM.
Same read-out and setting: in the case of `COC(=O)C1=C(c2ccc(OC)c(OC)c2)C[C@@H]2CC[C@H]1N2C(=O)NCc1cccc2ccccc12` [MLS002302726-01] it was 3.35 µM; in that of `COc1cc(NC(=O)c2ccc(N)nc2)cc(C(=O)Nc2cccc(C(F)(F)F)c2)c1` [MLS003105961-01], 5.31 µM.
On to `Cc1ccc(O)c(CN2CCCC(c3nc(CC(C)C)no3)C2)c1` (stereo not drawn) [NCGC00443337-01], for which the AC50 stood at 9.44 µM.
Still for that read-out and setting: under `Cc1ccc(-n2ncc3c(NCc4ccco4)ncnc32)cc1C` [MLS000622044-01] stands 15 µM; under `CC(=O)Nc1cccc(-c2cc(C(=O)NCc3c(C)cc(C)[nH]c3=O)c3c(c2)N(C(C)C)CCO3)c1` [NCGC00417042-01], 9.44 µM.
On the same count and under the same terms, in the case of `O=C(NC1CCCC1)c1ccc(OC2CCN(CCCC(F)(F)F)CC2)c(Cl)c1` [NCGC00429036-01] it was 9.44 µM; in that of `CC(C)CNc1nnnc2c1sc1nc(N3CCOCC3)c3c(c12)CCCC3` [MLS000779378-01], 15 µM.
With `CCc1nn2cc(C(=O)c3cc(C)ccc3O)cnc2c1-c1ccc(F)cc1` [MLS000548735-01], the AC50 worked out at 9.44 µM.
With `Cc1noc(C)c1-c1cc2cc(CN(C)C)oc2c(Nc2cccnc2)n1` [NCGC00417472-01], the AC50 is 12.2 µM.
Take `O=C(CC(c1ccc(F)cc1)c1cn(Cc2ccccc2)c2ccc([N+](=O)[O-])cc12)N1CCOCC1` (stereo not drawn) [NCGC00473380-01]: the AC50 was 9.44 µM.
Consider `CC1(c2ccccc2)N(Cc2ccc(O)cc2)C(=O)OC12CCN(Cc1c[nH]c3ccccc13)CC2` (stereo not drawn) [NCGC00415668-01], for which the AC50 turned out to be 5.31 µM.
Regarding `Cc1cc([N+](=O)[O-])ccc1NC(=O)COc1nsnc1N1CCOCC1` [MLS000950344-01], the AC50 came out at 6.68 µM.
Consider `Cc1nc(-c2ccc(F)cc2)n(CC(=O)Nc2cccc(Cl)c2)c(=O)c1CCO` [NCGC00470975-01], for which the AC50 was 15 µM.
Take `CCC[S+](=O)([O-])c1nc([S+](=O)([O-])c2ccc(C)cc2)c(NCCCOC(C)C)s1` [NCGC00113582-01]: the AC50 was determined as 2.11 µM.
As for `CC(C)CNC(=O)c1nc(-c2ccc(Cl)cc2)c2cnccn12` [NCGC00476461-01], the AC50 turned out to be 8.63 µM.
Same read-out and setting: under `NC(=O)c1cccc2nc([C@H]3CCN(Cc4ccccn4)C3)[nH]c12` [NCGC00396190-01] stands 1.53 µM; under `CN(C)CCCNc1ccc(-c2cc(Nc3cccc(Cl)c3)ncn2)cn1` [MLS000911553-01], 9.44 µM.
As to `COc1cc2c(cc1Oc1ccccc1)NC(=O)C21CCN(c2cnccn2)CC1` [NCGC00416813-01], the AC50 was determined as 2.17 µM.
On to `Cc1cc(Nc2ccc(C)c(C)c2)n2nc(C)nc2n1` [MLS000116616-01], for which the AC50 amounted to 4.73 µM.
As for `N=c1c2c3c(sc2ncn1Nc1ccccc1)CCC3` [MLS000858994-01], the AC50 stood at 3.35 µM.
Regarding `CC12CC3CC(C)(C1)CC(Nc1nc(N4CCOCC4)nc4ccccc14)(C3)C2` [MLS000332322-01], the AC50 came out at 9.44 µM.
The same measure, in the same setting: under `COc1ccccc1N1CCN(C(=O)CSc2nc(-c3ccc(C(C)C)cc3)no2)CC1` [NCGC00127900-01] stands 0.376 µM; under `O[C@]1(c2ccccc2)CCN(Cc2ccco2)C[C@H]1N1CCCC1` [NCGC00442602-01], 8.41 µM; under `C1CCC(CNc2c3c(nc4nnnn24)CCCC3)CC1` [MLS000034780-01], 13.3 µM.
As for `CC(=O)NCCC(=O)Nc1cc(S(=O)(=O)N2CCCCC2)ccc1N1CCCCC1` [MLS002181171-01], the AC50 came out at 7.5 µM.
Take `CCOc1ccc(NC(=O)c2nnn3cc(C)[nH]c(=O)c23)cc1` [NCGC00454245-01]: the AC50 came to 10.6 µM.
